Key:
Aβ plaques [1] = test: Detection of Aβ plaques by means of MRT and optical fluorescence measurements in the mice model; format: in vivo, transgenic APP23 mice and non-transgenic control mice; details: age 28 months, 2 mg/kg body weight
Excerpt: Detection of Aβ Plaques by Means of MRT in the Mice Model
For the MRT measurements a threedimensional gradient echosequence (gre3D) which both comprises T1 as well as T2* parts, and a quantitative T2 value determination sequence (T2map) were used.
The observations made in vivo could also be confirmed ex vivo after a preparation of the brains.

Aβ plaques [2] = test: Detection of Aβ plaques by means of optical imaging (OI) in the mouse model; format: in vivo, transgenic APPPS1 mice and non-transgenic control mice
Protocol: Detection of Aβ Plaques by Means of Optical Imaging (OI) in the Mouse Model
The compound was formulated in physiological saline solution (0.9% NaCl) in a concentration of 0.05 mg/ml and intravenously injected into the mice. In the following the mice were examined by means of OI (Aequoria Hamamatsu Optical Imaging System), the signal was detected at 650 nm.
It is clear for the skilled person that this labeling can—depending on the kind of labeling—be realized by any method, such as OI, PET (e.g. with ^76Br, ^75Br or ^18F labeled compounds) or MRT (e.g. with ^19F labeled compounds).
The signal strength was quantified as a relative fluorescence signal, whereby 30 min after the injection was chosen as the reference point in time. The signal strength was calculated by percentage after the subtraction of the auto fluorescence (resulting in relative intensity values, Irel) and then the percentage difference between the transgenic and control mice—in the following referred to as specific binding (Bsp)—was calculated and plotted against the age of the transgenic mice (see FIG. 3). It turned out that there is a significant correlation between the age and the development of the Alzheimer's disease and the signal strength, where it was especially noted that the compound according to the invention has no saturation or ceiling effects in a way that the signal strength is not increasing at a specific concentration of Aβ plaques. To the contrary, at the age of 21 months for the transgenic mice a particularly strong signal has been measured.

[3] = Storage stability of the isolated title compound; format: physicochemical; details: within 12 hours at −25° C.
Protocol: The title compound is instable and decomposes within 12 hours to 50% at −25° C. For this reason the title compound is further converted directly after the isolation.

For `CCN1CCOc2cc3c(cc21)Oc1cc2c(cc1=N3)OCC[N+]=2CC[19F]` [Example 1, 8-Ethyl-4-(2-fluoroethyl)-3,8,9,10-tetrahydro-2H-bis([1,4]oxazino)[2,3-b:3′,2′-i]phenoxazin-4-ium chloride], the “enrichment in control mice (MRT and fluorescence)” value (Aβ plaques [1]; non-transgenic control mice) was “neither for the MRT measurements nor the fluorescence measurements a specific enrichment” and the “enrichment in transgenic mice (MRT and fluorescence)” value (Aβ plaques [1]; transgenic APP23 mice, measurement period 90 minutes) was “a specific enrichment in the transgenic mice could be detected”.

In the case of `CCN1CCOc2cc3c(cc21)Oc1cc2c(cc1=N3)OCC[N+]=2CC[18F]` [Example 3, [F-18]-8-Ethyl-4-(2-Fluoroethyl)-3,8,9,10-tetrahydro-2H-bis([1,4]-oxazino)[2,3-b:3′,2′-i]phenoxazin-4-ium chloride], the “binding to Aβ plaques (summary of OI examinations)” value (Aβ plaques [2]; in vivo, OI) is reported as “selectively binds to Aβ plaques”, the “accumulation in control mice (OI signal)” value (Aβ plaques [2]; non-transgenic control mice, 0.1 mg/kg body weight i.v., signal at 650 nm, FIG. 1) is reported as “no accumulation could be detected” and the “accumulation in transgenic mice (OI signal)” value (Aβ plaques [2]; transgenic APPPS1 mice, 0.1 mg/kg body weight i.v., signal at 650 nm, FIG. 1 (age 12 months, 120 min after injection)) is reported as “specifically accumulates in transgenic mice”. The “enrichment as a function of the age of the transgenic mice” value (Aβ plaques [2]; transgenic APPPS1 mice, 0.1 mg/kg i.v., OI) was “increases with the age of the transgenic mice”, the “enrichment in transgenic mice of an age of 2 months” value (Aβ plaques [2]; transgenic APPPS1 mice, age 2 months, 0.1 mg/kg i.v., OI, FIG. 2) was “no enrichment can be detected” and the “enrichment in transgenic mice at the age of 12 months” value (Aβ plaques [2]; transgenic APPPS1 mice, age 12 months, 0.1 mg/kg i.v., OI, FIG. 2) was “a significant enrichment can be seen”.

Work on `Oc1ccc2c(c1)N(CCBr)CCO2` [Example 13A, 4-(2-Bromoethyl)-3,4-dihydro-2H-benzo[b][1,4]oxazin-6-ol] yielded a decomposition on storage [3] of 50%.

Reference: US9796730B2, “Halogenated benzoxazines and their use” (priority 2012, dated 2017)
